Laboratory results from patent US12187723B2 (BRISTOL-MYERS SQUIBB COMPANY, priority 2019, dated 2025).

The molecules below were run against T1, human TLR9 (Homo sapiens, UniProt Q9NR96) (assay: TLR9 inhibition reporter assay (HEK-Blue SEAP)). Conditions: HEK-Blue cells overexpressing human TLR9, ODN2006 5 nM, 22 hour incubation.
T1 construct: host or cells: HEK-Blue cells
T1 sequence (Q9NR96 26-1032): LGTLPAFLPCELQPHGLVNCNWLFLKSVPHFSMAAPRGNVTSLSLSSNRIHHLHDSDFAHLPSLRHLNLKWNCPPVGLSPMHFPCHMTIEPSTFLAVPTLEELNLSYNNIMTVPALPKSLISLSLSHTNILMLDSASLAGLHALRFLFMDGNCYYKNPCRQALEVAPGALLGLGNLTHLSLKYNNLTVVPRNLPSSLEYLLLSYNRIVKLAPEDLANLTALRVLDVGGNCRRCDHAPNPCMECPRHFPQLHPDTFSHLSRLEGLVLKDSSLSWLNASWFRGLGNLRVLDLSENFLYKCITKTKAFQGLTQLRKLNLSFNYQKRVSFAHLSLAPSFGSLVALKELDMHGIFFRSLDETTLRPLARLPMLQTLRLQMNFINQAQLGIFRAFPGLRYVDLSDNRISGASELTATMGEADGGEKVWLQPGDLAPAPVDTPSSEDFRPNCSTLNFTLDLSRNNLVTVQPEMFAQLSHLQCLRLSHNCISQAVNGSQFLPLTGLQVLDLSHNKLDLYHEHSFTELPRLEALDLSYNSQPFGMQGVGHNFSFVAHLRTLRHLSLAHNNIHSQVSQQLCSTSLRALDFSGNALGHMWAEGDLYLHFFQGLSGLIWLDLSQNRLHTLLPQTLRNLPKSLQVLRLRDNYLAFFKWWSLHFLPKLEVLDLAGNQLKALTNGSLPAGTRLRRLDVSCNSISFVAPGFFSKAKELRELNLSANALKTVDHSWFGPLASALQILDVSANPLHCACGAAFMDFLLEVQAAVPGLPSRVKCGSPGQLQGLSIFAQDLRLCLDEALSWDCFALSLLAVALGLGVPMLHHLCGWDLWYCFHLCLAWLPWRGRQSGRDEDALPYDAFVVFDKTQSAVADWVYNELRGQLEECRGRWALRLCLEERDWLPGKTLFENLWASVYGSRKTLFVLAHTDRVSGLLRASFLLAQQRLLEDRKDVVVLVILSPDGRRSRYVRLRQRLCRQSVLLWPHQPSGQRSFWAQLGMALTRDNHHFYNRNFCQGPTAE
Assay type: cell-based
Procedure, shortened: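 Screening used HEK-Blue cells overexpressing one human TLR (7, 8 or 9) and an IFN-β minimal promoter–NF-κB/AP-1 SEAP construct. Stimulation lasted 22 h at 37 °C with receptor-specific agonist: gardiquimod, R848 or ODN2006 at 7.5 μM, 15.9 μM and 5 nM.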

Row | Structure (SMILES) | IC50
1 | COc1cc(-c2cc3[nH]c(=O)n([C@@H]4CCCN(C5CCCOC5)C4)c3cc2C(C)C)cn2ncnc12 (single isomer, unassigned) [Example 218] | 24.2 µM
2 | COc1cc(-c2cc3[nH]c(=O)n([C@@H]4CCCN(C5CCCOC5)C4)c3cc2C(C)C)cn2ncnc12 (single isomer, unassigned) [Example 219] | 25.1 µM
3 | COCCN1CCC[C@@H](n2c(=O)[nH]c3cc(-c4cc(OC)c5ncnn5c4)c(C(C)C)cc32)C1 (single isomer, unassigned) [Example 225] | 33.8 µM
4 | COc1c(C)c(-c2cc3[nH]c(=O)n(C4CCC(N5CCC(F)(F)CC5)CC4)c3cc2C(C)C)cn2ncnc12 (single isomer, unassigned) [Example 229, 1-(4-(4,4-difluoropiperidin-1-yl)cyclohexyl)-6-isopropyl-5-(8-methoxy-7-methyl-[1,2,4]triazolo[1,5-a]pyridin-6-yl)-1,3-dihydro-2H-benzo[d]imidazol-2-one] | 30 µM
5 | COc1c(C)c(-c2cc3[nH]c(=O)n(C4CCC(N5CCC(F)(F)CC5)CC4)c3cc2C(C)C)cn2ncnc12 (single isomer, unassigned) [Example 230, 1-(4-(4,4-difluoropiperidin-1-yl)cyclohexyl)-6-isopropyl-5-(8-methoxy-7-methyl-[1,2,4]triazolo[1,5-a]pyridin-6-yl)-1,3-dihydro-2H-benzo[d]imidazol-2-one] | > 50 µM
6 | COc1cc(-c2cc3[nH]c(=O)n(C4CCC(N5CCNC(=O)C5)CC4)c3cc2C(C)C)cn2ncnc12 (single isomer, unassigned) [Example 233, 6-isopropyl-5-(8-methoxy-[1,2,4]triazolo[1,5-a]pyridin-6-yl)-1-(4-(3-oxopiperazin-1-yl)cyclohexyl)-1,3-dihydro-2H-benzo[d]imidazol-2-one] | > 50 µM
7 | COc1cc(-c2cc3[nH]c(=O)n(C4CCC(N5CCNC(=O)C5)CC4)c3cc2C(C)C)cn2ncnc12 (single isomer, unassigned) [Example 234, 6-isopropyl-5-(8-methoxy-[1,2,4]triazolo[1,5-a]pyridin-6-yl)-1-(4-(3-oxopiperazin-1-yl)cyclohexyl)-1,3-dihydro-2H-benzo[d]imidazol-2-one] | > 50 µM
8 | COc1cc(-c2cc3[nH]c(=O)n(C4CCC(N5CC(O)(C(F)(F)F)C5)CC4)c3cc2C(C)C)cn2ncnc12 (single isomer, unassigned) [Example 241, 1-(4-(3-hydroxy-3-(trifluoromethyl)azetidin-1-yl)cyclohexyl)-6-isopropyl-5-(8-methoxy-[1,2,4]triazolo[1,5-a]pyridin-6-yl)-1,3-dihydro-2H-benzo[d]imidazol-2-one] | > 50 µM
9 | COc1cc(-c2cc3[nH]c(=O)n(C4CCC(N5CC(O)(C(F)(F)F)C5)CC4)c3cc2C(C)C)cn2ncnc12 (single isomer, unassigned) [Example 242, 1-(4-(3-hydroxy-3-(trifluoromethyl)azetidin-1-yl)cyclohexyl)-6-isopropyl-5-(8-methoxy-[1,2,4]triazolo[1,5-a]pyridin-6-yl)-1,3-dihydro-2H-benzo[d]imidazol-2-one] | 23.7 µM
10 | Cc1cc2c(cc1-c1cc(C)c3ncnn3c1)[nH]c(=O)n2[C@H]1CCCN(C2COC2)C1 [Example 14, (S)-6-methyl-5-(8-methyl-[1,2,4]triazolo[1,5-a]pyridin-6-yl)-1-(1-(oxetan-3-yl)piperidin-3-yl)-1,3-dihydro-2H-benzo[d]imidazol-2-one] | > 50 µM
11 | CCc1cc2c(cc1-c1cc(OC)c3ncnn3c1)[nH]c(=O)n2[C@H]1CC[C@@H](NC2COC2)CC1 [Example 170, 6-ethyl-5-(8-methoxy-[1,2,4]triazolo[1,5-a]pyridin-6-yl)-1-((1s,4s)-4-(oxetan-3-ylamino)cyclohexyl)-1,3-dihydro-2H-benzo[d]imidazol-2-one] | 20 µM
12 | CCc1cc2c(cc1-c1cc(OC)c3ncnn3c1)[nH]c(=O)n2[C@@H]1CCCN(C2COC2)C1 [Example 173, (R)-6-ethyl-5-(8-methoxy-[1,2,4]triazolo[1,5-a]pyridin-6-yl)-1-(1-(oxetan-3-yl)piperidin-3-yl)-1,3-dihydro-2H-benzo[d]imidazol-2-one] | > 50 µM

Now those with a lower IC50, led by results:

Row | IC50 | Structure (SMILES)
13 | 11.2 µM | COc1cc(-c2cc3[nH]c(=O)n(C4CCC(N5CC6(CCOCC6)C5)CC4)c3cc2C(C)C)cn2ncnc12 (single isomer, unassigned) [Example 235, 1-(4-(7-oxa-2-azaspiro[3.5]nonan-2-yl)cyclohexyl)-6-isopropyl-5-(8-methoxy-[1,2,4]triazolo[1,5-a]pyridin-6-yl)-1,3-dihydro-2H-benzo[d]imidazol-2-one]
14 | 2.59 µM | COc1cc(-c2cc3[nH]c(=O)n(C4CCC(N5CC6(CCOCC6)C5)CC4)c3cc2C(C)C)cn2ncnc12 (single isomer, unassigned) [Example 236, 1-(4-(7-oxa-2-azaspiro[3.5]nonan-2-yl)cyclohexyl)-6-isopropyl-5-(8-methoxy-[1,2,4]triazolo[1,5-a]pyridin-6-yl)-1,3-dihydro-2H-benzo[d]imidazol-2-one]
15 | 9.55 µM | Cc1cc2c(cc1-c1cc(C)c3ncnn3c1)[nH]c(=O)n2[C@H]1CCCN(C)C1 [Example 11, (S)-6-methyl-5-(8-methyl-[1,2,4]triazolo[1,5-a]pyridin-6-yl)-1-(1-methylpiperidin-3-yl)-1,3-dihydro-2H-benzo[d]imidazol-2-one]
16 | 7.64 µM | CCN1CCC[C@H](n2c(=O)[nH]c3cc(-c4cc(C)c5ncnn5c4)c(C)cc32)C1 [Example 12, (S)-1-(1-ethylpiperidin-3-yl)-6-methyl-5-(8-methyl-[1,2,4]triazolo[1,5-a]pyridin-6-yl)-1,3-dihydro-2H-benzo[d]imidazol-2-one]
17 | 4.42 µM | Cc1cc2c(cc1-c1cc(C)c3ncnn3c1)[nH]c(=O)n2[C@H]1CCCN(C(C)C)C1 [Example 13, (S)-1-(1-isopropylpiperidin-3-yl)-6-methyl-5-(8-methyl-[1,2,4]triazolo[1,5-a]pyridin-6-yl)-1,3-dihydro-2H-benzo[d]imidazol-2-one]
18 | 5.94 µM | Cc1cc2c(cc1-c1cc(C)c3ncnn3c1)[nH]c(=O)n2[C@@H]1CCCN(C)C1 [Example 15, (R)-6-methyl-5-(8-methyl-[1,2,4]triazolo[1,5-a]pyridin-6-yl)-1-(1-methylpiperidin-3-yl)-1,3-dihydro-2H-benzo[d]imidazol-2-one]
19 | 8.95 µM | CCN1CCC[C@@H](n2c(=O)[nH]c3cc(-c4cc(C)c5ncnn5c4)c(C)cc32)C1 [Example 16, (R)-1-(1-ethylpiperidin-3-yl)-6-methyl-5-(8-methyl-[1,2,4]triazolo[1,5-a]pyridin-6-yl)-1,3-dihydro-2H-benzo[d]imidazol-2-one]
20 | 5.69 µM | Cc1cc2c(cc1-c1cc(C)c3ncnn3c1)[nH]c(=O)n2[C@@H]1CCCN(C(C)C)C1 [Example 17, (R)-1-(1-isopropylpiperidin-3-yl)-6-methyl-5-(8-methyl-[1,2,4]triazolo[1,5-a]pyridin-6-yl)-1,3-dihydro-2H-benzo[d]imidazol-2-one]
21 | 18.3 µM | CCc1cc2c(cc1-c1cc(OC)c3ncnn3c1)[nH]c(=O)n2[C@H]1CC[C@@H](N(CC)CC)CC1 [Example 169, 1-((1s,4s)-4-(diethylamino)cyclohexyl)-6-ethyl-5-(8-methoxy-[1,2,4]triazolo[1,5-a]pyridin-6-yl)-1,3-dihydro-2H-benzo[d]imidazol-2-one]
22 | 10.7 µM | CCc1cc2c(cc1-c1cc(OC)c3ncnn3c1)[nH]c(=O)n2[C@@H]1CCCN(CC)C1 [Example 171, (R)-6-ethyl-1-(1-ethylpiperidin-3-yl)-5-(8-methoxy-[1,2,4]triazolo[1,5-a]pyridin-6-yl)-1,3-dihydro-2H-benzo[d]imidazol-2-one]
23 | 6.83 µM | CCc1cc2c(cc1-c1cc(OC)c3ncnn3c1)[nH]c(=O)n2[C@@H]1CCCN(C(C)C)C1 [Example 172, (R)-6-ethyl-1-(1-isopropylpiperidin-3-yl)-5-(8-methoxy-[1,2,4]triazolo[1,5-a]pyridin-6-yl)-1,3-dihydro-2H-benzo[d]imidazol-2-one]
24 | 7.34 µM | CCc1cc2c(cc1-c1cc(OC)c3ncnn3c1)[nH]c(=O)n2[C@@H]1CCCN(C)C1 [Example 174, (R)-6-ethyl-5-(8-methoxy-[1,2,4]triazolo[1,5-a]pyridin-6-yl)-1-(1-methylpiperidin-3-yl)-1,3-dihydro-2H-benzo[d]imidazol-2-one]
